Assays:
P38a/MAPK14 = target: T1, P38a/MAPK14 (Homo sapiens, UniProt Q16539); test: HotSpot kinase assay; assay type: biochemical; details: read-out: % Enzyme Activity (relative to DMSO controls)
T1 construct: purchased Reaction Biology Corporation

HIPK2 = target: T2, HIPK2 (Homo sapiens, UniProt Q9H2X6); test: HotSpot kinase assay; assay type: biochemical; details: read-out: % Enzyme Activity (relative to DMSO controls)
T2 construct: purchased Reaction Biology Corporation

MRCKb/CDC42BPB = target: T3, MRCKb/CDC42BPB (Homo sapiens, UniProt Q9Y5S2); test: HotSpot kinase assay; assay type: biochemical; details: read-out: % Enzyme Activity (relative to DMSO controls)
T3 construct: purchased Reaction Biology Corporation

MYO3A = target: T4, MYO3A (Homo sapiens, UniProt Q8NEV4); test: HotSpot kinase assay; assay type: biochemical; details: read-out: % Enzyme Activity (relative to DMSO controls)
T4 construct: purchased Reaction Biology Corporation
T4 sequence (Q8NEV4 whole entry): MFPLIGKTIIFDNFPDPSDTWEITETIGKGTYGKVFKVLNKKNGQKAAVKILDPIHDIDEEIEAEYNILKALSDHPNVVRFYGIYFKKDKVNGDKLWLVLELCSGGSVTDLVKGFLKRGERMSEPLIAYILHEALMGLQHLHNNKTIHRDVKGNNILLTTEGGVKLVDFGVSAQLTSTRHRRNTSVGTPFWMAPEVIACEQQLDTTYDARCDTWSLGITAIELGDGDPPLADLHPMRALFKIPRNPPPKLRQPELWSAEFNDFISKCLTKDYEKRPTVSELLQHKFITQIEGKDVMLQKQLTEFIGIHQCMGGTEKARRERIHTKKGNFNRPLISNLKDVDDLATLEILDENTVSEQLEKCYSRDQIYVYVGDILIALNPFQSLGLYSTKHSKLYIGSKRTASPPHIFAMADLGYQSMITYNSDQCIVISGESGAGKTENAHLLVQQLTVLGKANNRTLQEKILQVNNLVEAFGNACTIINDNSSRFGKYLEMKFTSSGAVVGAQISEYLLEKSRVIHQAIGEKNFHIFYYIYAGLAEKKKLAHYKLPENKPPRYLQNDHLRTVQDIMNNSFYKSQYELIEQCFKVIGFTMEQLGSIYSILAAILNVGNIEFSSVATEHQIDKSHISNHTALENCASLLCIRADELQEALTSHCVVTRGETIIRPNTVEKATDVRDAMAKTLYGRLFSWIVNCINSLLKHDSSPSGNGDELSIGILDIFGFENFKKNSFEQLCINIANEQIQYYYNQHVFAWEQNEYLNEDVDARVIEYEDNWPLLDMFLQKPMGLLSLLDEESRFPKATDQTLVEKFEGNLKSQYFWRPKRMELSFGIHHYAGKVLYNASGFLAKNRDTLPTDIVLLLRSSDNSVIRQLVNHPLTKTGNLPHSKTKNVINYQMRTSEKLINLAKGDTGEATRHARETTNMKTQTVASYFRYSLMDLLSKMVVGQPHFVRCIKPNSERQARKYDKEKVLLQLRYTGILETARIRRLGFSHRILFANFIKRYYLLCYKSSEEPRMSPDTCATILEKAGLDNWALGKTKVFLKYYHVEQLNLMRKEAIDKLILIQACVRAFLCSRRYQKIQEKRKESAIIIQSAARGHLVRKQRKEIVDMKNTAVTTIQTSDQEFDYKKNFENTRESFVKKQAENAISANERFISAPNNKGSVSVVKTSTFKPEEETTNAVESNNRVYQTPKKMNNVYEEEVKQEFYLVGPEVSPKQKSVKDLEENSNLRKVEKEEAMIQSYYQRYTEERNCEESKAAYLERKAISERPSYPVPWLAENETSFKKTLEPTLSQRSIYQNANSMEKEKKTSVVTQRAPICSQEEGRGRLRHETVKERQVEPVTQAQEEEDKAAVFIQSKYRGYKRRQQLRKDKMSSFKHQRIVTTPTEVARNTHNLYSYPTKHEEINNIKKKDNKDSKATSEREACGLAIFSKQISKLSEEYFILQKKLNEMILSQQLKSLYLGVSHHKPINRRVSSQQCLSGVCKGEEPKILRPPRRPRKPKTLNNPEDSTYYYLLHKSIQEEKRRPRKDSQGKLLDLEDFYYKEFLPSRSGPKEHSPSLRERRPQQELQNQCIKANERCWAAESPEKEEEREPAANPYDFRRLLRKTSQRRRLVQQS

SYK = target: T5, SYK (Homo sapiens, UniProt P43405); test: HotSpot kinase assay; assay type: biochemical; details: read-out: % Enzyme Activity (relative to DMSO controls)
T5 construct: purchased Reaction Biology Corporation

PASK = target: T6, PASK (Homo sapiens, UniProt Q96RG2); test: HotSpot kinase assay; assay type: biochemical; details: read-out: % Enzyme Activity (relative to DMSO controls)
T6 construct: purchased Reaction Biology Corporation
T6 sequence (Q96RG2 whole entry): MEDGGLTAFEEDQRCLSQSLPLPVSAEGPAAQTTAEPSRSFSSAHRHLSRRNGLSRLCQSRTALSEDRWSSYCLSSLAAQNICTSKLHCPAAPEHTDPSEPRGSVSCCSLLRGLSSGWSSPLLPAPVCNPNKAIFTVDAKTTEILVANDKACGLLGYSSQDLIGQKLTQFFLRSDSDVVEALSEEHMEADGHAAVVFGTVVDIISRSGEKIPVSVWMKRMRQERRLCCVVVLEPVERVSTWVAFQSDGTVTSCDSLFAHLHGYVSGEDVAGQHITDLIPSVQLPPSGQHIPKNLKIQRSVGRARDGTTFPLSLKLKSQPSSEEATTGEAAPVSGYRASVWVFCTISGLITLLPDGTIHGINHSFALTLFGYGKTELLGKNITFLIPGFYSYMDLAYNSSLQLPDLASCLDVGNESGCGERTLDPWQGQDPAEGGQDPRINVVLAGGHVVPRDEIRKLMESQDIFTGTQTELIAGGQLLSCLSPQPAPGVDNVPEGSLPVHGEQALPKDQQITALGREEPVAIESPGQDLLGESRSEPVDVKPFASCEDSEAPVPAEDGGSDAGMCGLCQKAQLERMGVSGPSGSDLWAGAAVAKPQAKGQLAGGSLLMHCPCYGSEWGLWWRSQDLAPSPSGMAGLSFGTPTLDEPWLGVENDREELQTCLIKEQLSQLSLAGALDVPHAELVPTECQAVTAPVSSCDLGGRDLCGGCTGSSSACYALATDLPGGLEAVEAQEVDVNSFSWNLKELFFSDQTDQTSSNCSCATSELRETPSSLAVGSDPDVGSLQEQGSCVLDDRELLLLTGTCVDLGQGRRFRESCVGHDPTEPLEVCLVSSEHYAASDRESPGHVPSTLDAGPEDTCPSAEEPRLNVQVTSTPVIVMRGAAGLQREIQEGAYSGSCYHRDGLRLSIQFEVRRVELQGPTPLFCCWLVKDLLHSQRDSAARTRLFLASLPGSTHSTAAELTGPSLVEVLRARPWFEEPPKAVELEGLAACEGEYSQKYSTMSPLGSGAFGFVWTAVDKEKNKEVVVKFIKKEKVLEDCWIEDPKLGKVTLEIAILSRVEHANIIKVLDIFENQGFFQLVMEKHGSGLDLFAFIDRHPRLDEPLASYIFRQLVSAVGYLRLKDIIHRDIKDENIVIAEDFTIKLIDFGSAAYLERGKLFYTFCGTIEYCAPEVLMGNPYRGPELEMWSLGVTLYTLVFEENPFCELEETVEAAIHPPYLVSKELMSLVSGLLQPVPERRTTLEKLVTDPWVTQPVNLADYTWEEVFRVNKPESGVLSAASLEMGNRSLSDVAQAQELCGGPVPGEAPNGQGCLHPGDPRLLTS

MEKK1 = target: T7, MEKK1 (Homo sapiens, UniProt Q13233); test: HotSpot kinase assay; assay type: biochemical; details: read-out: % Enzyme Activity (relative to DMSO controls)
T7 construct: purchased Reaction Biology Corporation

MAPKAPK3 = target: T8, MAPKAPK3 (Homo sapiens, UniProt Q16644); test: HotSpot kinase assay; assay type: biochemical; details: read-out: % Enzyme Activity (relative to DMSO controls)
T8 construct: purchased Reaction Biology Corporation

PLK1 = target: T9, PLK1 (Homo sapiens, UniProt P53350); test: HotSpot kinase assay; assay type: biochemical; details: read-out: % Enzyme Activity (relative to DMSO controls)
T9 construct: purchased Reaction Biology Corporation

BLK = target: T10, BLK (Homo sapiens, UniProt P51451); test: HotSpot kinase assay; assay type: biochemical; details: read-out: % Enzyme Activity (relative to DMSO controls)
T10 construct: purchased Reaction Biology Corporation
T10 sequence (P51451 whole entry): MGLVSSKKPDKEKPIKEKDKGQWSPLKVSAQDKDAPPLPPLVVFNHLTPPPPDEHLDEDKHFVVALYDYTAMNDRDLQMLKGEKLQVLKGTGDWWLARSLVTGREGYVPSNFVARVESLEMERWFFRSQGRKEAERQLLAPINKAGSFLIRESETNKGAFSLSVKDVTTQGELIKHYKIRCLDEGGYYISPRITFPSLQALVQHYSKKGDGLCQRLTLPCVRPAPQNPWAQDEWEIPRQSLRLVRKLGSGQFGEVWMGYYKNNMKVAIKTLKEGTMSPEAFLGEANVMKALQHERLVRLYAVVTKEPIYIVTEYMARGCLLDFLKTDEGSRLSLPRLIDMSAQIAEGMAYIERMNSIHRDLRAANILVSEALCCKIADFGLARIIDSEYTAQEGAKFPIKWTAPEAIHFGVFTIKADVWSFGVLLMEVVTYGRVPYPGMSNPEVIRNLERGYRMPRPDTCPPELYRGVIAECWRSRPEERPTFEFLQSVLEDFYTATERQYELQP

LATS2 = target: T11, LATS2 (Homo sapiens, UniProt Q9NRM7); test: HotSpot kinase assay; assay type: biochemical; details: read-out: % Enzyme Activity (relative to DMSO controls)
T11 construct: purchased Reaction Biology Corporation

IGF1R = target: T12, IGF1R (Homo sapiens, UniProt P08069); test: HotSpot kinase assay; assay type: biochemical; details: read-out: % Enzyme Activity (relative to DMSO controls)
T12 construct: purchased Reaction Biology Corporation

TYRO3/SKY = target: T13, TYRO3/SKY (Homo sapiens, UniProt Q06418); test: HotSpot kinase assay; assay type: biochemical; details: read-out: % Enzyme Activity (relative to DMSO controls)
T13 construct: purchased Reaction Biology Corporation

ZAP70 = target: T14, ZAP70 (Homo sapiens, UniProt P43403); test: HotSpot kinase assay; assay type: biochemical; details: read-out: % Enzyme Activity (relative to DMSO controls)
T14 construct: purchased Reaction Biology Corporation

PLK3 = target: T15, PLK3 (Homo sapiens, UniProt Q9H4B4); test: HotSpot kinase assay; assay type: biochemical; details: read-out: % Enzyme Activity (relative to DMSO controls)
T15 construct: purchased Reaction Biology Corporation

PKCd = target: T16, PKCd (Homo sapiens, UniProt Q05655); test: biochemical
T16 construct: purchased Reaction Biology Corporation
T16 sequence (Q05655 whole entry): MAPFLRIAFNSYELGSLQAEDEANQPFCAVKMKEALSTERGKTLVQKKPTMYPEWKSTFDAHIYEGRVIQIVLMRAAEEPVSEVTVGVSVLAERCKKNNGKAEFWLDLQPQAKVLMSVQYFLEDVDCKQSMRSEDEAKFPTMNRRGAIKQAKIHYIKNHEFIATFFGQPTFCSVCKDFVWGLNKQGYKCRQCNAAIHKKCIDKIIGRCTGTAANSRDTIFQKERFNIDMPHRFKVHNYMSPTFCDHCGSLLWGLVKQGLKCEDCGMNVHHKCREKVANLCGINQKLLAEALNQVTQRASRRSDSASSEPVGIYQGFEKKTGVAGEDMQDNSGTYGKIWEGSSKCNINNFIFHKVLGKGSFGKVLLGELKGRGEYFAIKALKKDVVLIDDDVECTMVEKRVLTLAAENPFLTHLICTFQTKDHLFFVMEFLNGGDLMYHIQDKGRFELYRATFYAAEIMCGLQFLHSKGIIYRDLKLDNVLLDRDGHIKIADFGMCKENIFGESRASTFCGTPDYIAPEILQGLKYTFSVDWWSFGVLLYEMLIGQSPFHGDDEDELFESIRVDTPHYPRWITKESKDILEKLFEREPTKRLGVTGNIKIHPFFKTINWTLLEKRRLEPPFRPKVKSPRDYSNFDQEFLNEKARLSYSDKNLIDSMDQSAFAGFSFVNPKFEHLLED

GRK6 = target: T17, GRK6 (Homo sapiens, UniProt P43250); test: HotSpot kinase assay; assay type: biochemical; details: read-out: % Enzyme Activity (relative to DMSO controls)
T17 construct: purchased Reaction Biology Corporation

SLK/STK2 = target: T18, SLK/STK2 (Homo sapiens, UniProt Q9H2G2); test: HotSpot kinase assay; assay type: biochemical; details: read-out: % Enzyme Activity (relative to DMSO controls)
T18 construct: purchased Reaction Biology Corporation

DYRK3 = target: T19, DYRK3 (Homo sapiens, UniProt O43781); test: HotSpot kinase assay; assay type: biochemical; details: read-out: % Enzyme Activity (relative to DMSO controls)
T19 construct: purchased Reaction Biology Corporation

CK1d = target: T20, CK1d (Homo sapiens, UniProt P48730); test: HotSpot kinase assay; assay type: biochemical; details: read-out: % Enzyme Activity (relative to DMSO controls)
T20 construct: purchased Reaction Biology Corporation

PKCa = target: T21, PKCa (Homo sapiens, UniProt P17252); test: HotSpot kinase assay; assay type: biochemical; details: read-out: % Enzyme Activity (relative to DMSO controls)
T21 construct: purchased Reaction Biology Corporation

p70S6Kb/RPS6KB2 = target: T22, p70S6Kb/RPS6KB2 (Homo sapiens, UniProt Q9UBS0); test: HotSpot kinase assay; assay type: biochemical; details: read-out: % Enzyme Activity (relative to DMSO controls)
T22 construct: purchased Reaction Biology Corporation

TEC = target: T23, TEC (Homo sapiens, UniProt P42680); test: HotSpot kinase assay; assay type: biochemical; details: read-out: % Enzyme Activity (relative to DMSO controls)
T23 construct: purchased Reaction Biology Corporation

PKCzeta = target: T24, PKCzeta (Homo sapiens, UniProt Q05513); test: HotSpot kinase assay; assay type: biochemical; details: read-out: % Enzyme Activity (relative to DMSO controls)
T24 construct: purchased Reaction Biology Corporation

CDK3/cyclin E2 = target: T25, CDK3/cyclin E2 (Homo sapiens, UniProt Q00526); test: HotSpot kinase assay; assay type: biochemical; details: read-out: % Enzyme Activity (relative to DMSO controls)
T25 construct: purchased Reaction Biology Corporation

MSSK1/STK23 = target: T26, MSSK1/STK23 (Homo sapiens, UniProt Q9UPE1); test: HotSpot kinase assay; assay type: biochemical; details: read-out: % Enzyme Activity (relative to DMSO controls)
T26 construct: purchased Reaction Biology Corporation

EPHA6 = target: T27, EPHA6 (Homo sapiens, UniProt Q9UF33); test: HotSpot kinase assay; assay type: biochemical; details: read-out: % Enzyme Activity (relative to DMSO controls)
T27 construct: purchased Reaction Biology Corporation

PKD2/PRKD2 = target: T28, PKD2/PRKD2 (Homo sapiens, UniProt Q9BZL6); test: HotSpot kinase assay; assay type: biochemical; details: read-out: % Enzyme Activity (relative to DMSO controls)
T28 construct: purchased Reaction Biology Corporation

CDK5/p35 = target: T29, CDK5/p35 (Homo sapiens, UniProt Q00535); test: HotSpot kinase assay; assay type: biochemical; details: read-out: % Enzyme Activity (relative to DMSO controls)
T29 construct: purchased Reaction Biology Corporation

MKK6 = target: T30, MKK6 (Homo sapiens, UniProt P52564); test: HotSpot kinase assay; assay type: biochemical; details: read-out: % Enzyme Activity (relative to DMSO controls)
T30 construct: purchased Reaction Biology Corporation
T30 sequence (P52564 whole entry): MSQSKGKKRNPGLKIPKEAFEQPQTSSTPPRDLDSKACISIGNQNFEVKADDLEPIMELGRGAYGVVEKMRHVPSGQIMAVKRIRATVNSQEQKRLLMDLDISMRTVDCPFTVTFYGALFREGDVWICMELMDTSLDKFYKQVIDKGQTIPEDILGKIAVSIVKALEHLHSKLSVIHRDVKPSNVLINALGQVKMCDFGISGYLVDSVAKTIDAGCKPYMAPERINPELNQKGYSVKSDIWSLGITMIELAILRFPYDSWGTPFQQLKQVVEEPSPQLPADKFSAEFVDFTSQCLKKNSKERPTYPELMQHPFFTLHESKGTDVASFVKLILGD

CDK6/cyclin D3 = target: T31, CDK6/cyclin D3 (Homo sapiens, UniProt Q00534); test: HotSpot kinase assay; assay type: biochemical; details: read-out: % Enzyme Activity (relative to DMSO controls)
T31 construct: purchased Reaction Biology Corporation
T31 sequence (Q00534 whole entry): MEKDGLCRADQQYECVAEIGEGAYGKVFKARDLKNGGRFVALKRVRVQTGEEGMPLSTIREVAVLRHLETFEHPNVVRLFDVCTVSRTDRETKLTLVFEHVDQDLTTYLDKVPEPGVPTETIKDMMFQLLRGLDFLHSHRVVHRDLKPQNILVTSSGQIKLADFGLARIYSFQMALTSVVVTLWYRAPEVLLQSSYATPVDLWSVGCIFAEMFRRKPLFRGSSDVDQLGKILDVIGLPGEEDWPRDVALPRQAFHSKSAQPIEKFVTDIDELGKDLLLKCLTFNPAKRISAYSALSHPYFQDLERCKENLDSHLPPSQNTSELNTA
T31 sequence (P30281 whole entry partner): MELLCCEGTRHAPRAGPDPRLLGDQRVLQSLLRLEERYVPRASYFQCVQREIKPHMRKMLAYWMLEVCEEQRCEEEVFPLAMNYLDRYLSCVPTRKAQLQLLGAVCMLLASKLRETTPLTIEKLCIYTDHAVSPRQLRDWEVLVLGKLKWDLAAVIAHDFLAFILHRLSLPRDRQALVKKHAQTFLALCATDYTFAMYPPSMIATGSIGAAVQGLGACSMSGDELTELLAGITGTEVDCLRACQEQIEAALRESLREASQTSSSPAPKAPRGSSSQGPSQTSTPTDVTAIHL

STK16 = target: T32, STK16 (Homo sapiens, UniProt O75716); test: HotSpot kinase assay; assay type: biochemical; details: read-out: % Enzyme Activity (relative to DMSO controls)
T32 construct: purchased Reaction Biology Corporation

HSV-1 K26GFP = test: capsid entry, confocal imaging, HaCat cells; assay type: cell-based; details: 1 h post-temperature shift; CIMSS 10 μM, antibody 2 μg/ml
Experimental: To quantify viral entry, cells were synchronously infected by allowing virus to bind to cells at 4°C for 4 h, washed, and then transferred to 37 °C. CIMSS or control DMSO was added at the time of temperature shift. At indicated times post-temperature shift, the cells were treated with a low pH buffer to inactivate virus that had not penetrated, washed, overlaid with medium containing methyl cellulose and viral plaques were counted at 48 h. Entry was also assessed by immunoblotting nuclear extracts for VP16. […] Nuclear extracts were prepared after 1 h and analyzed by western blot with antibodies targeting VP16, histone H1 and golgin-97[5]. The non-nuclear fraction was also probed for golgin-97 as a positive control. […] After 1 or 4 h of incubation, the cells were fixed. Plasma membranes were stained using Image -IT^TM LIVE Plasma Membrane kit and nuclei were stained with DAPI (Thermo Fisher Scientific, Cat 134406). The percentage of GFP + nuclei was determined by counting ~200 cells over 3–4 fields. Images were obtained with Leica SP8 microscope (objective 63 × 1.4); xz images were captured with optical slice 0.6 µm, 25–30 slices per image.

FGFR4 = target: T33, FGFR4 (Homo sapiens, UniProt P22455); test: HotSpot kinase assay; assay type: biochemical; details: read-out: % Enzyme Activity (relative to DMSO controls)
T33 construct: purchased Reaction Biology Corporation

ALK1/ACVRL1 = target: T34, ALK1/ACVRL1 (Homo sapiens, UniProt P37023); test: HotSpot kinase assay; assay type: biochemical; details: read-out: % Enzyme Activity (relative to DMSO controls)
T34 construct: purchased Reaction Biology Corporation

CO[C@@H]1[C@H](N(C)C(=O)CCC(=O)NCc2cn(CCCS(=O)(=O)O)nn2)C[C@H]2O[C@]1(C)n1c3ccccc3c3c4c(c5c6ccccc6n2c5c31)C(=O)NC4 [CIMSS]
remaining activity at 10 µM (P38a/MAPK14): 102% | remaining activity at 10 µM (HIPK2): 17.5% | remaining activity at 10 µM (MRCKb/CDC42BPB): 75.8% | remaining activity at 10 µM (MYO3A): 6.46% | remaining activity at 10 µM (SYK): 0.87% | remaining activity at 10 µM (PASK): 41.6% | remaining activity at 10 µM (MEKK1): 67% | remaining activity at 10 µM (MAPKAPK3): 87.5% | remaining activity at 10 µM (PLK1): 17.1% | remaining activity at 10 µM (BLK): 0.34% | remaining activity at 10 µM (LATS2): 6.54% | remaining activity at 10 µM (IGF1R): 6.72% | remaining activity at 10 µM (TYRO3/SKY): 23.6% | remaining activity at 10 µM (ZAP70): 13% | remaining activity at 10 µM (PLK3): 98.2% | IC50 (PKCd; Supplementary Table 1, read-out: IC50 (Molar concentration)): 3.64 nM | remaining activity at 10 µM (PKCd; read-out: % Enzyme Activity (relative to DMSO controls), 10µM): 8.64% | remaining activity at 10 µM (GRK6): 8.36% | remaining activity at 10 µM (SLK/STK2): 6.42% | remaining activity at 10 µM (DYRK3): 28.2% | remaining activity at 10 µM (CK1d): 106% | remaining activity at 10 µM (PKCa): 0.86% | remaining activity at 10 µM (p70S6Kb/RPS6KB2): 3.38% | remaining activity at 10 µM (TEC): 19.9% | remaining activity at 10 µM (PKCzeta): 55.8% | remaining activity at 10 µM (CDK3/cyclin E2): 22.3% | remaining activity at 10 µM (MSSK1/STK23): 67.7% | remaining activity at 10 µM (EPHA6): 34.6% | remaining activity at 10 µM (PKD2/PRKD2): 11.9% | remaining activity at 10 µM (CDK5/p35): 8.78% | remaining activity at 10 µM (MKK6): 59.7% | remaining activity at 10 µM (CDK6/cyclin D3): 56.8% | remaining activity at 10 µM (STK16): 10.2% | percentage of GFP + cells (HSV-1 K26GFP): significantly decreased | remaining activity at 10 µM (FGFR4): 4.31% | remaining activity at 10 µM (ALK1/ACVRL1): 70%
